# Tests used:
# Format in all cases: biochemical
# SHV-5 β-lactamase = biological target: T1, SHV-5 β-lactamase (Klebsiella pneumoniae, UniProt P0A3M1); assay: β-Lactamase inhibition enzyme assay, SHV-5
# T1 construct: made in house; host or cells: E. coli BL21(DE3)
# Protocol: (§1) For SHV-5, Kpc-2, p99AmpC and OXA-1 β-lactamases, E. coli BL21(DE3) bacterial cells carrying expression plasmids (expressed as native untagged proteins) for the individual β-lactamases were grown in 1 L of Superbroth (Teknova Inc. Hollister, Calif.) supplemented with 100 μg/ml kanamycin selection and 1×5052 (0.5% glycerol, 0.05% glucose and 0.2% α-lactose) at 35° C. for 18-20 hours. Cells were harvested by centrifugation (4,000×g, 4° C., 20 min), resuspended in 50 ml of 10 mM HEPES pH 7.5 ( 1/20 of the initial volume). The cells were lysed by sonication (5 pulses of 45 seconds) at 45 W on ice. The lysates were clarified by centrifugation at 10,000×g for 40 minutes at 4° C. Samples were diluted 5-fold in 50 mM sodium acetate pH 5.0, stored overnight at 4° C., after which they were centrifuged at 10,000×g for 30 minutes to clarify, and filtered through 0.45 μm filters. The samples were loaded onto a 5 ml Capto S sepharose cation exchange column (GE Healthcare) pre-equilibrated with 50 mM sodium acetate pH 5.0. The column was washed with 5 column volumes of 50 mM sodium acetate pH 5.0 to wash out unbound protein and a linear gradient of NaCl (0 to 500 mM) was used to elute the protein (over 16 CV) from the column. Fractions were assayed for β-lactamase activity using Centa (Calbiochem, Gibbstown, N.J.) or Nitrocefin (EMD Millipore chemicals, Darmstadt, Germany) as a reporter β-lactamase substrate for activity in the isolated fractions. Active fractions were pooled, concentrated and further purified by gel filtration chromatography on a Superdex 75 prep grade gel filtration column (GE Healthcare, Piscataway, N.J.) pre-equilibrated in 50 mM Hepes pH 7.5, 150 mM NaCl. Active fractions were pooled concentrated, quantitated by BCA protein determination (Thermo Scientific, Rockford, Ill.), dialyzed into PBS and frozen at −80° C. in 20% glycerol until use.
# (§2) An equal volume of diluted enzyme stock was added, and the plates were incubated at 37° C. for 15 min. Nitrocefin was used as substrate for p99 AmpC, VIM-2 and OXA-1 and dispensed into each well at a final concentration of 100 μM. Absorbance at 486 nm was immediately monitored for 10 min using a Biotek Powerwave XS2 microplate spectrophotometer using the GEN5 softweare package (Biotek Instruments, Winooski Vt.). In an analogous fashion, imipenem was used as substrate for Kpc-2 and Cefotaxime was used for SHV-5, while changes in absorbance upon hydrolysis of the β-lactam ring were monitored at 300 nm and 260 nm respectively in UV-transparent 96-well microtiter assay plates. Maximum rates of hydrolysis were compared to those in control wells (without inhibitors), and percentages of enzyme inhibition were calculated for each concentration of inhibitor. The concentration of inhibitor needed to reduce the initial rate of hydrolysis of substrate by 50% (IC50) was calculated as the residual activity of β-lactamase at 486 nm using GraFit version 7 kinetics software package (Erithacus Software, Surrey, UK).
# KPC-2 β-lactamase = biological target: T2, KPC-2 β-lactamase (Klebsiella pneumoniae, UniProt Q9F663); assay: β-Lactamase inhibition enzyme assay, KPC-2; settings: imipenem as substrate, 300 nm; 15 min at 37° C. with enzyme, PBS pH 7.4; read-out: Class A KPC-2 IC50
# T2 construct: made in house; host or cells: E. coli BL21(DE3)
# T2 sequence (Q9F663 25-293, looked up): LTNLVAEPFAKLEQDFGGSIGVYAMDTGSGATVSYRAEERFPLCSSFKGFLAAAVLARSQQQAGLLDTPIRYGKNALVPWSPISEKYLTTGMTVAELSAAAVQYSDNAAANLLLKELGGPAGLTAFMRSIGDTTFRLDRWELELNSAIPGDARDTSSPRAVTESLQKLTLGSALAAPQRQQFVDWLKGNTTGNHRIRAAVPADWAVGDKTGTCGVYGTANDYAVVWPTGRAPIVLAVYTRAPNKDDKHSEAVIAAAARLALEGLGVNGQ
# Protocol: as §1, §2
# [1] = biological target: T3, VIM-2 metallo β-lactamase (Pseudomonas aeruginosa, UniProt Q9K2N0); assay: β-Lactamase inhibition enzyme assay, VIM-2; settings: Nitrocefin 100 μM as substrate, 486 nm; 15 min at 37° C. with enzyme, PBS pH 7.4; read-out: Class B VIM-2 IC50
# T3 construct: made in house; host or cells: E. coli BL21(DE3)
# Protocol: as §1
# For Vim-2 metallo β-lactamase, the procedure was identical with the following exceptions, first the protein was not pH adjusted to pH 5 with 50 mM sodium acetate, second, the chromatography step was changed to a 5 ml Q sepharose anion exchange column pre-equilibrated with 50 mM Hepes pH 7.5, and elution of the protein was achieved by a linear gradient of NaCl (0-600 mM). Finally, the VIM-2 purification required a second run (3rd step) on the Q sepharose anion exchange column to achieve acceptable purity (>90%).
# as §2
# p99 AmpC β-lactamase = biological target: T4, p99 AmpC β-lactamase (Enterobacter cloacae, UniProt P05364); assay: β-Lactamase inhibition enzyme assay, p99 AmpC
# T4 construct: made in house; host or cells: E. coli BL21(DE3)
# T4 sequence (P05364 21-381): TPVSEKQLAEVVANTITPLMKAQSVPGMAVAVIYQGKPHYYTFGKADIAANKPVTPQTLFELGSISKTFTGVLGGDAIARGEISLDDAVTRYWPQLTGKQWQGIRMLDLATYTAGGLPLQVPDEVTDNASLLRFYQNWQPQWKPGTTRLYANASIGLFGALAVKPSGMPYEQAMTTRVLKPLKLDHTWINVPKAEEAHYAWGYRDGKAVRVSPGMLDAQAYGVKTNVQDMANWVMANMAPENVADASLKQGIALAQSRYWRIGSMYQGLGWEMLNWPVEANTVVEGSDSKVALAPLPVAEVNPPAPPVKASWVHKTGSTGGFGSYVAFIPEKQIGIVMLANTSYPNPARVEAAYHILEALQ
# Protocol: as §1, §2
# OXA-1 β-lactamase = biological target: T5, OXA-1 β-lactamase (Escherichia coli, UniProt P13661); assay: β-Lactamase inhibition enzyme assay, OXA-1; settings: Nitrocefin 100 μM as substrate, 486 nm; 15 min at 37° C. with enzyme, PBS pH 7.4; read-out: Class D OXA-1 IC50
# T5 construct: made in house; host or cells: E. coli BL21(DE3)
# T5 sequence (P13661 26-276): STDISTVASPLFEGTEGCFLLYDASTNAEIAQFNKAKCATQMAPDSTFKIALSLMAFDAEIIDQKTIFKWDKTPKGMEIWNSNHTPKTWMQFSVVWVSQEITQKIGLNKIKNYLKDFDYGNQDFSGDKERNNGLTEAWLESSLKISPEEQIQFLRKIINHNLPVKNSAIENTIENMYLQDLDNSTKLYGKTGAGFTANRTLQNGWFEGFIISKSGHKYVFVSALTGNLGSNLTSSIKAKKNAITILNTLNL
# Protocol: as §1, §2
# T1 sequence (P0A3M1 22-286): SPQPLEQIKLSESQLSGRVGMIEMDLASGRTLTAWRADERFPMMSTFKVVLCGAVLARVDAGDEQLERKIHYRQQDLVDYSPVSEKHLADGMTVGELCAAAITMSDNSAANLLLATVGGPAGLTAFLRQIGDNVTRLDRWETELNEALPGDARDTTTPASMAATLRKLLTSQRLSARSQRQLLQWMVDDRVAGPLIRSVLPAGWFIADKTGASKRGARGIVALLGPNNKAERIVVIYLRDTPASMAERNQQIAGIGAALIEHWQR
Compound,IC50 (SHV-5 β-lactamase) [nM],IC50 (KPC-2 β-lactamase) [nM],IC50 [1] [nM],IC50 (p99 AmpC β-lactamase) [nM],IC50 (OXA-1 β-lactamase) [nM]
"O=C(O)c1cccc2c1OB(O)[C@@H](NC(=O)C1(c3ccccc3)CC1)C2 [Example 1, (R)-2-hydroxy-3-(1-phenylcyclopropanecarboxamido)-3,4-dihydro-2H-benzo[e][1,2]oxaborinine-8-carboxylic acid]",< 100,< 100,100 to 1000,< 100,< 100
"O=C(O)c1cccc2c1OB(O)[C@@H](NC(=O)C(F)(F)c1ccccc1)C2 [Example 2, (R)-3-(2,2-difluoro-2-phenylacetamido)-2-hydroxy-3,4-dihydro-2H-benzo[e][1,2]oxaborinine-8-carboxylic acid]",< 100,< 100,1000 to 10000,< 100,< 100
"O=C(N[C@H]1Cc2cccc(C(=O)O)c2OB1O)c1csc2c1CCNC2 [Example 4, (R)-2-hydroxy-3-(4,5,6,7-tetrahydrothieno[2,3-c]pyridine-3-carboxamido)-3,4-dihydro-2H-benzo[e][1,2]oxaborinine-8-carboxylic acid]",< 100,< 100,100 to 1000,< 100,< 100
"O=C(N[C@H]1Cc2cccc(C(=O)O)c2OB1O)c1ccc2c(c1)CCNC2 [Example 5, (R)-3-(2-borono-2-(1,2,3,4-tetrahydroisoquinoline-6-carboxamido)ethyl)-2-hydroxybenzoic acid]",< 100,< 100,100 to 1000,< 100,< 100
"CN1CCc2c(C(=O)N[C@H]3Cc4cccc(C(=O)O)c4OB3O)csc2C1 [Example 6, (R)-2-hydroxy-3-(6-methyl-4,5,6,7-tetrahydrothieno[2,3-c]pyridine-3-carboxamido)-3,4-dihydro-2H-benzo[e][1,2]oxaborinine-8-carboxylic acid]",< 100,< 100,1000 to 10000,< 100,< 100
"CN1CCc2cc(C(=O)N[C@H]3Cc4cccc(C(=O)O)c4OB3O)ccc2C1 [Example 7, (R)-2-hydroxy-3-(2-methyl-1,2,3,4-tetrahydroisoquinoline-6-carboxamido)-3,4-dihydro-2H-benzo[e][1,2]oxaborinine-8-carboxylic acid]",< 100,< 100,100 to 1000,< 100,100 to 1000
"O=C(O)c1cccc2c1OB(O)[C@@H](NC(=O)c1c[nH]c3ncccc13)C2 [Example 8, (R)-2-hydroxy-3-(1H-pyrrolo[2,3-b]pyridine-3-carboxamido)-3,4-dihydro-2H-benzo[e][1,2]oxaborinine-8-carboxylic acid]",< 100,100 to 1000,1000 to 10000,< 100,–
"O=C(N[C@H]1Cc2cccc(C(=O)O)c2OB1O)c1ccc2c(c1)CNC2 [Example 9, (R)-2-hydroxy-3-(isoindoline-5-carboxamido)-3,4-dihydro-2H-benzo[e][1,2]oxaborinine-8-carboxylic acid]",< 100,< 100,< 100,< 100,< 100
"CN1Cc2ccc(C(=O)N[C@H]3Cc4cccc(C(=O)O)c4OB3O)cc2C1 [Example 10, (R)-2-hydroxy-3-(2-methylisoindoline-5-carboxamido)-3,4-dihydro-2H-benzo[e][1,2]oxaborinine-8-carboxylic acid]",< 100,< 100,< 100,< 100,< 100
"NCCN1Cc2ccc(C(=O)N[C@H]3Cc4cccc(C(=O)O)c4OB3O)cc2C1 [Example 11, (R)-3-(2-(2-aminoethyl)isoindoline-5-carboxamido)-2-hydroxy-3,4-dihydro-2H-benzo[e][1,2]oxaborinine-8-carboxylic acid]",< 100,< 100,100 to 1000,< 100,< 100
"O=C(N[C@H]1Cc2cccc(C(=O)O)c2OB1O)c1ccc2c(c1)CN(Cc1cccnc1)C2 [Example 12, (R)-2-hydroxy-3-(2-(pyridin-3-ylmethyl)isoindoline-5-carboxamido)-3,4-dihydro-2H-benzo[e][1,2]oxaborinine-8-carboxylic acid]",< 100,< 100,100 to 1000,< 100,< 100
"O=C(Cc1cnc2c(c1)CCCN2)N[C@H]1Cc2cccc(C(=O)O)c2OB1O [Example 13, (R)-2-hydroxy-3-(2-(5,6,7,8-tetrahydro-1,8-naphthyridin-3-yl)acetamido)-3,4-dihydro-2H-benzo[e][1,2]oxaborinine-8-carboxylic acid]",< 100,100 to 1000,1000 to 10000,< 100,< 100
"NCc1ccc(C(=O)N[C@H]2Cc3cccc(C(=O)O)c3OB2O)cc1CN [Example 14, (R)-3-(3,4-bis(aminomethyl)benzamido)-2-hydroxy-3,4-dihydro-2H-benzo[e][1,2]oxaborinine-8-carboxylic acid]",100 to 1000,100 to 1000,< 100,< 100,< 100
"NC1=Nc2cc(C(=O)N[C@H]3Cc4cccc(C(=O)O)c4OB3O)ccc2CN1 [Example 15, (R)-3-(2-amino-3,4-dihydroquinazoline-7-carboxamido)-2-hydroxy-3,4-dihydro-2H-benzo[e][1,2]oxaborinine-8-carboxylic acid]",< 100,100 to 1000,1000 to 10000,< 100,100 to 1000
"N=C(N)N1Cc2ccc(C(=O)N[C@H]3Cc4cccc(C(=O)O)c4OB3O)cc2C1 [Example 16, (R)-3-(2-carbamimidoylisoindoline-5-carboxamido)-2-hydroxy-3,4-dihydro-2H-benzo[e][1,2]oxaborinine-8-carboxylic acid]",< 100,< 100,< 100,< 100,< 100
"NC1=NCc2ccc(C(=O)N[C@H]3Cc4cccc(C(=O)O)c4OB3O)cc2CN1 [Example 17, (R)-3-(3-amino-4,5-dihydro-1H-benzo[e][1,3]diazepine-7-carboxamido)-2-hydroxy-3,4-dihydro-2H-benzo[e][1,2]oxaborinine-8-carboxylic acid]",< 100,< 100,< 100,< 100,< 100
"CN(C)Cc1ccc(C(=O)N[C@H]2Cc3cccc(C(=O)O)c3OB2O)cc1N [Example 18, (R)-3-(3-amino-4-((dimethylamino)methyl)benzamido)-2-hydroxy-3,4-dihydro-2H-benzo[e][1,2]oxaborinine-8-carboxylic acid]",< 100,< 100,100 to 1000,< 100,< 100
"CNCc1ccc(C(=O)N[C@H]2Cc3cccc(C(=O)O)c3OB2O)cc1CNC [Example 19, (R)-3-(3,4-bis((methylamino)methyl)benzamido)-2-hydroxy-3,4-dihydro-2H-benzo[e][1,2]oxaborinine-8-carboxylic acid]",< 100,< 100,< 100,< 100,< 100
